Test results published in ChEMBL document CHEMBL1641546, “The discovery and structure-activity relationships leading to CE-156811, a difluorophenyl cyclopropyl fluoroether: a novel potent antibacterial analog derived from hygromycin A” (Bioorg Med Chem Lett, 2011).
In brackets after ≈: the same amount, converted by molar mass. Each block holds one compound with its values, some of them ahead of it. Activity calls are given as the source filed them. The rule behind the calls is not given here.

Key:
Staphylococcus aureus [1] = test: Antibacterial activity against Staphylococcus aureus 1095; type: functional
Enterococcus faecalis [2] = test: Antibacterial activity against Enterococcus faecalis 1085; type: functional
Enterococcus faecium [3] = test: Antibacterial activity against Enterococcus faecium 1022; type: functional
Streptococcus pneumoniae [4] = test: Antibacterial activity against Streptococcus pneumoniae 1016; type: functional
Staphylococcus aureus [5] = test: Antibacterial activity against methicillin-sensitive Staphylococcus aureus; type: functional
Staphylococcus aureus [6] = test: Antibacterial activity against methicillin-resistant Staphylococcus aureus; type: functional
Staphylococcus aureus [7] = test: Antibacterial activity against glycopeptide-intermediate Staphylococcus aureus; type: functional
[8] = tested on: Staphylococcus epidermidis; test: Antibacterial activity against methicillin-sensitive Staphylococcus epidermidis; type: functional
Streptococcus pneumoniae [9] = test: Antibacterial activity against penicillin-resistant Streptococcus pneumoniae; type: functional
Enterococcus faecalis [10] = test: Antibacterial activity against multidrug-resistant Enterococcus faecalis; type: functional
Enterococcus faecium [11] = test: Antibacterial activity against multidrug-resistant Enterococcus faecium; type: functional
[12] = Clearance in mouse; type: ADME, organism-based; details: in vivo
[13] = Clearance in rat; type: ADME, organism-based; details: in vivo
[14] = Clearance in monkey; type: ADME, organism-based, Macaca mulatta; details: rhesus monkey, in vivo
[15] = Clearance in dog; type: ADME, organism-based, Canis lupus familiaris; details: in vivo
[16] = Volume of distribution at steady state in mouse; type: ADME, organism-based; details: in vivo, read-out: Vdss
[17] = Volume of distribution at steady state in rat; type: ADME, organism-based; details: in vivo, read-out: Vdss
[18] = Volume of distribution at steady state in monkey; type: ADME, organism-based, Macaca mulatta; details: rhesus monkey, in vivo; read-out: Vdss
[19] = Volume of distribution at steady state in dog; type: ADME, organism-based, Canis lupus familiaris; details: in vivo, read-out: Vdss
[20] = Half life in mouse; type: ADME, organism-based; details: in vivo
[21] = Half life in rat; type: ADME, organism-based; details: in vivo
[22] = Half life in monkey; type: ADME, organism-based, Macaca mulatta; details: rhesus monkey, in vivo
[23] = Half life in dog; type: ADME, organism-based, Canis lupus familiaris; details: in vivo
[24] = Oral bioavailability in mouse; type: ADME, organism-based; details: in vivo
[25] = Oral bioavailability in rat at 10 mg/kg, po and 5 mg/kg, iv; type: ADME, organism-based; details: in vivo
Staphylococcus aureus [26] = test: Antibacterial activity against Staphylococcus aureus infected in sc dosed in vivo acute model administered bid for 1 day; type: functional; details: 24 h, read-out: PD50
Enterococcus faecium [27] = test: Antibacterial activity against Enterococcus faecium infected in sc dosed in vivo acute model administered bid for 1 day; type: functional; details: 24 h, read-out: PD50
Enterococcus faecalis [28] = test: Antibacterial activity against Enterococcus faecalis infected in sc dosed in vivo acute model administered bid for 1 day; type: functional; details: 24 h, read-out: PD50
Streptococcus pneumoniae [29] = test: Antibacterial activity against Streptococcus pneumoniae infected in sc dosed in vivo lung model administered bid for 3 day; type: functional; details: 72 h, read-out: PD50
Streptococcus pyogenes [30] = test: Antibacterial activity against Streptococcus pyogenes infected in sc dosed in vivo acute model administered bid for 1 day; type: functional; details: 24 h, read-out: PD50
Enterococcus faecium [31] = test: Antibacterial activity against Enterococcus faecium infected in po dosed in vivo acute model administered bid for 1 day; type: functional; details: 24 h, read-out: PD50
Enterococcus faecalis [32] = test: Antibacterial activity against Enterococcus faecalis infected in po dosed in vivo acute model administered bid for 1 day; type: functional; details: 24 h, read-out: PD50
Streptococcus pneumoniae [33] = test: Antibacterial activity against Streptococcus pneumoniae infected in po dosed in vivo lung model administered bid for 3 day; type: functional; details: 72 h, read-out: PD50
Streptococcus pyogenes [34] = test: Antibacterial activity against Streptococcus pyogenes infected in po dosed in vivo acute model administered bid for 1 day; type: functional; details: 24 h, read-out: PD50

Compound: C/C(=C\c1cc(F)c(OCC2(F)CCC2)cc1F)C(=O)N[C@@H]1[C@H](O)[C@@H](O)[C@H]2OCO[C@H]2[C@@H]1O
MIC (Staphylococcus aureus [1]): 6.2 µg/mL (≈ 13.1 µM)
MIC (Enterococcus faecalis [2]): 6.2 µg/mL (≈ 13.1 µM)
MIC (Enterococcus faecium [3]): 6.2 µg/mL (≈ 13.1 µM)
MIC (Streptococcus pneumoniae [4]): 3.1 µg/mL (≈ 6.55 µM)

Compound: C/C(=C\c1cc(F)c(OCC2CCC2)cc1F)C(=O)N[C@@H]1[C@H](O)[C@@H](O)[C@H]2OCO[C@H]2[C@@H]1O
MIC (Staphylococcus aureus [1]): 12.5 µg/mL (≈ 27.4 µM)
MIC (Enterococcus faecalis [2]): 12.5 µg/mL (≈ 27.4 µM)
MIC (Enterococcus faecium [3]): 6.2 µg/mL (≈ 13.6 µM)
MIC (Streptococcus pneumoniae [4]): 6.2 µg/mL (≈ 13.6 µM)

Compound: C/C(=C\c1cc(F)c(OCC(C)F)cc1F)C(=O)N[C@@H]1[C@H](O)[C@@H](O)[C@H]2OCO[C@H]2[C@@H]1O (some centres not stated)
MIC (Staphylococcus aureus [1]): 6.25 µg/mL (≈ 14 µM)
MIC (Enterococcus faecalis [2]): 60.2 µg/mL (≈ 135 µM)
MIC (Enterococcus faecium [3]): 3.13 µg/mL (≈ 7 µM)
MIC (Streptococcus pneumoniae [4]): 60.2 µg/mL (≈ 135 µM)

Compound: C/C(=C\c1cc(F)c(OCC(F)C2CC2)cc1F)C(=O)N[C@@H]1[C@H](O)[C@@H](O)[C@H]2OCO[C@H]2[C@@H]1O (some centres not stated)
MIC (Staphylococcus aureus [1]): 1.56 µg/mL (≈ 3.3 µM)
MIC (Enterococcus faecalis [2]): 1.6 µg/mL (≈ 3.38 µM)
MIC (Enterococcus faecium [3]): 1.6 µg/mL (≈ 3.38 µM)
MIC (Streptococcus pneumoniae [4]): 0.4 µg/mL (≈ 0.845 µM)

Compound: C/C(=C\c1cc(F)c(OC[C@H](F)C2CC2)cc1F)C(=O)N[C@@H]1[C@H](O)[C@@H](O)[C@H]2OCO[C@H]2[C@@H]1O
MIC90 (Staphylococcus aureus [5]): 1 µg/mL (≈ 2.11 µM)
MIC90 (Staphylococcus aureus [6]): 0.5 µg/mL (≈ 1.06 µM)
MIC90 (Staphylococcus aureus [7]): 0.125 µg/mL (≈ 0.264 µM)
MIC90 [8]: 0.25 µg/mL (≈ 0.528 µM)
MIC90 (Streptococcus pneumoniae [9]): 0.5 µg/mL (≈ 1.06 µM)
MIC90 (Enterococcus faecalis [10]): 0.5 µg/mL (≈ 1.06 µM)
MIC90 (Enterococcus faecium [11]): 1 µg/mL (≈ 2.11 µM)
clearance [12]: 12.1 mL/min/kg
clearance [13]: 10.5 mL/min/kg
clearance [14]: 8.6 mL/min/kg
clearance [15]: 5.4 mL/min/kg
Vd [16]: 0.52 L/kg
Vd [17]: 0.5 L/kg
Vd [18]: 0.59 L/kg
Vd [19]: 0.71 L/kg
half-life [20]: 1.4 h
half-life [21]: 1.3 h
half-life [22]: 1 h
half-life [23]: 1.9 h
bioavailability [24]: 55%
bioavailability [25]: 56%
ED50 (Staphylococcus aureus [26]): 4 mg/kg
ED50 (Enterococcus faecium [27]): 8 mg/kg
ED50 (Enterococcus faecalis [28]): 10 mg/kg
ED50 (Streptococcus pneumoniae [29]): 23 mg/kg
ED50 (Streptococcus pyogenes [30]): 3 mg/kg

Compound: CC(=O)NC[C@H]1CN(c2ccc(N3CCOCC3)c(F)c2)C(=O)O1 [LINEZOLID]
MIC90 (Staphylococcus aureus [5]): 2 µg/mL (≈ 5.93 µM)
MIC90 (Staphylococcus aureus [6]): 1 µg/mL (≈ 2.96 µM)
MIC90 (Staphylococcus aureus [7]): 0.5 µg/mL (≈ 1.48 µM)
MIC90 [8]: 1 µg/mL (≈ 2.96 µM)
MIC90 (Streptococcus pneumoniae [9]): 1 µg/mL (≈ 2.96 µM)
MIC90 (Enterococcus faecalis [10]): 1 µg/mL (≈ 2.96 µM)
MIC90 (Enterococcus faecium [11]): 2 µg/mL (≈ 5.93 µM)
ED50 (Enterococcus faecium [31]): 4 mg/kg
ED50 (Enterococcus faecalis [32]): 3 mg/kg
ED50 (Streptococcus pneumoniae [33]): 10 mg/kg
ED50 (Streptococcus pyogenes [34]): 3 mg/kg

Second part, the compound after the results:

MIC (Staphylococcus aureus [1]): 1.56 µg/mL (≈ 3.49 µM)
MIC (Enterococcus faecalis [2]): 1.56 µg/mL (≈ 3.49 µM)
MIC (Enterococcus faecium [3]): 0.78 µg/mL (≈ 1.74 µM)
MIC (Streptococcus pneumoniae [4]): 2 µg/mL (≈ 4.47 µM)
Compound: C/C(=C\c1cc(F)c(OCCCF)cc1F)C(=O)N[C@@H]1[C@H](O)[C@@H](O)[C@H]2OCO[C@H]2[C@@H]1O

MIC (Staphylococcus aureus [1]): 100 µg/mL (≈ 210 µM)
MIC (Enterococcus faecalis [2]): 100 µg/mL (≈ 210 µM)
MIC (Enterococcus faecium [3]): 50 µg/mL (≈ 105 µM)
MIC (Streptococcus pneumoniae [4]): 25 µg/mL (≈ 52.6 µM)
Compound: C/C(=C\c1cc(F)c(OCCC(C)(C)F)cc1F)C(=O)N[C@@H]1[C@H](O)[C@@H](O)[C@H]2OCO[C@H]2[C@@H]1O

MIC (Staphylococcus aureus [1]): 12.5 µg/mL (≈ 26.9 µM)
MIC (Enterococcus faecalis [2]): 12.5 µg/mL (≈ 26.9 µM)
MIC (Enterococcus faecium [3]): 3.13 µg/mL (≈ 6.73 µM)
MIC (Streptococcus pneumoniae [4]): 1.56 µg/mL (≈ 3.35 µM)
Compound: C/C(=C\c1cc(F)c(OCCC(F)F)cc1F)C(=O)N[C@@H]1[C@H](O)[C@@H](O)[C@H]2OCO[C@H]2[C@@H]1O

MIC (Staphylococcus aureus [1]): 50 µg/mL (≈ 115 µM)
MIC (Enterococcus faecalis [2]): 25 µg/mL (≈ 57.7 µM)
MIC (Enterococcus faecium [3]): 25 µg/mL (≈ 57.7 µM)
MIC (Streptococcus pneumoniae [4]): 6.2 µg/mL (≈ 14.3 µM)
Compound: C/C(=C\c1cc(F)c(OCCF)cc1F)C(=O)N[C@@H]1[C@H](O)[C@@H](O)[C@H]2OCO[C@H]2[C@@H]1O

MIC (Staphylococcus aureus [1]): 100 µg/mL (≈ 232 µM)
MIC (Enterococcus faecalis [2]): > 100 µg/mL
MIC (Enterococcus faecium [3]): > 100 µg/mL
MIC (Streptococcus pneumoniae [4]): inactive
Compound: C/C(=C\c1cc(F)c(OCCO)cc1F)C(=O)N[C@@H]1[C@H](O)[C@@H](O)[C@H]2OCO[C@H]2[C@@H]1O

MIC (Staphylococcus aureus [1]): 100 µg/mL (≈ 241 µM)
MIC (Enterococcus faecalis [2]): 25 µg/mL (≈ 60.2 µM)
MIC (Enterococcus faecium [3]): 12.5 µg/mL (≈ 30.1 µM)
MIC (Streptococcus pneumoniae [4]): inactive
Compound: CCOc1cc(F)c(/C=C(\C)C(=O)N[C@@H]2[C@H](O)[C@@H](O)[C@H]3OCO[C@H]3[C@@H]2O)cc1F
